In the NIST ThermoML archive (doi:10.1016/j.tca.2016.06.015):
Numbers after ± are expanded uncertainties.

Assay: molar heat capacity at constant pressure
Details: Liquid, Flow calorimetry

O [water]
3000 kPa
Details	molar heat capacity at constant pressure [J/K/mol]
305.9 K	77.29 ± 4.9
315.6 K	72.96 ± 4.7
325.4 K	73.14 ± 4.7
335.8 K	76.56 ± 4.9
345.8 K	74.58 ± 4.7
354 K	78.01 ± 5
366.2 K	74.22 ± 4.7
381.2 K	77.65 ± 5
394.4 K	74.58 ± 4.7
407.3 K	76.2 ± 4.9
419.9 K	76.38 ± 4.9
433.9 K	76.02 ± 4.9

CCCCCCCCCC [decane]
4000 kPa
Details	molar heat capacity at constant pressure [J/K/mol]
305.7 K	293.1 ± 18
316.2 K	305.91 ± 20
326.5 K	304.48 ± 20
335.3 K	315.87 ± 20
344 K	324.4 ± 21
354.1 K	322.98 ± 20
366.8 K	327.25 ± 21
377.6 K	340.05 ± 21
389.8 K	335.78 ± 21
401.5 K	344.32 ± 21
423.6 K	361.4 ± 23
432.6 K	367.09 ± 23
443.4 K	372.78 ± 24
453.9 K	377.05 ± 24
463.9 K	389.85 ± 24
475.4 K	396.97 ± 26
486.6 K	419.73 ± 27
496 K	414.04 ± 27
504.1 K	432.54 ± 27
516.7 K	415.46 ± 27
528.9 K	424 ± 27
539.4 K	433.96 ± 27
551.9 K	453.88 ± 28
564.4 K	453.88 ± 28
574.2 K	470.95 ± 30
584.4 K	488.03 ± 31
595.2 K	507.95 ± 33
603.1 K	513.64 ± 33
608.6 K	486.6 ± 31
614.1 K	497.99 ± 31
